From PMC6481137, “Identification of Chinese Herbal Compounds with Potential as JAK3 Inhibitors” (Evidence-based Complementary and Alternative Medicine : eCAM, 2019)
pIC50: −log10 of the molar value.

target: T1, JAK3 kinase (Homo sapiens, UniProt P52333); experiment: ELISA kinase assay, poly(Glu,Tyr) substrate, […] ATP; assay type: biochemical
T1 construct: JAK3 kinase domain (amino acids 781 to 1124)
T1 sequence (P52333 781-1124): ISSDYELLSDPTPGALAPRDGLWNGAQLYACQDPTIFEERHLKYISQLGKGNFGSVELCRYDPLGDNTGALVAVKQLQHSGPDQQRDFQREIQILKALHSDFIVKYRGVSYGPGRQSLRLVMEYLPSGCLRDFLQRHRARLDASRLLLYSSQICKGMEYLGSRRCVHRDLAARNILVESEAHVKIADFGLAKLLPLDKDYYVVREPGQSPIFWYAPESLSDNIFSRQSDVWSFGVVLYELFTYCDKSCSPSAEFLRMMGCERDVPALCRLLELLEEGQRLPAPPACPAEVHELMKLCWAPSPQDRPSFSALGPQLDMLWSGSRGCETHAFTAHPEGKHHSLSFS

In order of falling pIC50:
1. COc1ccc(-c2oc3c(CC=C(C)C)c(O)cc(O)c3c(=O)c2O)cc1 [ICA, Icaritin]  ~4.70
2. C[C@H]1COC2=C1C(=O)C(=O)c1c2ccc2c1CCCC2(C)C [CRY, Cryptotanshinone]  ~4.60
3. O=C1Nc2ccccc2/C1=C1/Nc2ccccc2C1=O [IND, Indirubin]  ~4.30
